Results from patent US10285938B2 (ISSAR Pharmaceutical, priority 2015, dated 2019).
Read-outs that look alike come from different tables or passages of the source. No end group written: not given here.

Columns and labels:
[1] = subacute toxicity study in rats; type: in vivo
[2] = test system: Pseudomonas aeroginosa MTCC 741; type: cell-based
Description: Whereas, 100% killing of Pseudomonas aeroginosa was observed on exposure to the test compound for 1 hr at pH 8.4 and an exposure of 4 hrs was required for 100% killing at pH 7.2.

[3] = human, in vivo
Description: There was an absence of any symptoms or signs of toxicity at the evaluation site and considered a measure of primary efficacy/tolerability was established in this study. […] Treatment Groups (2% and 4%) were similar in efficacy/tolerability and safety parameters studied.

[4] = subacute toxicity study in rabbits; type: in vivo
[5] = test system: Staphylococcus aureus MTCC 96; type: cell-based
burn wound healing = test system: burn wound healing; design: species or system human; settings: in vivo
Description: None of the XYLENTRA® treated volunteers developed any adverse reaction.

Description for partial thickness burns: Patients of either gender with partial thickness burns referred to a tertiary referral center Number of Subjects Enrolled: 160
Multi-center, double-blind, randomized parallel design study in 200 patients of partial thickness burns • 2. […] Participants satisfying the inclusion criteria were hospitalized for the study duration and were randomized in a 1:1 ratio to receive either SSD 1% or XYLENTRA®. Randomization was done specific for each center. Allocation concealment was maintained. The drugs were topically administered once daily for 4 weeks or until complete wound healing, whichever was earlier. The patients were discharged only after complete healing of wound and recovery from other secondary effects of burns. A follow up was done on the 3rd month to record the frequency of scars^10, keloids or contracture formation. • b. […] Either sex • 2. Age 18-60 years • 3. Those diagnosed with partial thickness thermal burns as per clinically • 4. Total surface area of the burn 10-20% as per Wallace rule of nine • 5. Willing to give written informed consent. • 6. Females of child-bearing potential with a negative urine pregnancy test on Day 1 • 7. […]
Safety was measured by pretreatment and post treatment biochemical investigations (Hematological variables) and physical examination. Subjects were thoroughly monitored for adverse effects.

FAKKFAKKFAKFAKKFAKFAFAF [XYLENTRA®]
mortality [1]: No mortality
abnormalities in physical, physiological, biochemical and histo-pathological parameters ([1]; application of the peptide): No abnormalities
killing of Pseudomonas aeroginosa ([2]; MTCC 741, 1 h, pH 8.4): 100%
killing of Pseudomonas aeroginosa ([2]; MTCC 741, 4 h, pH 7.2): 100%
mild redness and itching [3]: 2/24
safety of cream [3]: safe
systemic absorption (pharmacokinetic data by HPLC) [3]: no systemic absorption
mortality [4]: No mortality
abnormalities in physical, physiological, biochemical and histo-pathological parameters ([4]; application of the peptide): No abnormalities
serious adverse events and deaths (partial thickness burns; Phase III): No serious adverse events and no deaths
nature of treatment emergent adverse events (partial thickness burns; mostly skin related disorders): mild
killing of Staphylococcus aureus ([5]; MTCC 96, 1 h, 1 μM, pH 7.2): 100%
killing of Staphylococcus aureus ([5]; MTCC 96, 1 h, 5 μM, pH 7.2): 100%
killing of Staphylococcus aureus ([5]; MTCC 96, 4 h, pH 8.4): 100%
systemic absorption (pharmacokinetic data) (burn wound healing): absence of systemic absorption
volunteers who developed any adverse reaction (burn wound healing): None
